According to article PMC11992618, “Development of cyclopeptide inhibitors specifically disrupting FXR–coactivator interaction in the intestine as a novel therapeutic strategy for MASH” (Life Metabolism, 2025):

Tests used:
[1] = target: T1, human FXR alpha (hFXRα)-LBD / NcoR2 peptide (Homo sapiens, UniProt Q96RI1); assay: AlphaScreen assay, recruitment of corepressor peptide NcoR2 to His-hFXRα-LBD; type: biochemical; settings: DC646 at 11 μmol/L, Ivermectin 5 μmol/L
T1 construct: 100 nmol/L 6*His-hFXRα-LBD and 100 nmol/L biotinylated co-factor peptide
T1 sequence (Q96RI1 262-486 limits assumed): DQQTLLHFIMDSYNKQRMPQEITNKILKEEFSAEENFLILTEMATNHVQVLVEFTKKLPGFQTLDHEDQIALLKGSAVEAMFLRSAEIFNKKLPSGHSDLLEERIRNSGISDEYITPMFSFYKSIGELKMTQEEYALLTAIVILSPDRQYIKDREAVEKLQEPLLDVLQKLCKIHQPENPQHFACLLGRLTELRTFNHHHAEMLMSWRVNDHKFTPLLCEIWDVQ
Procedure: An AlphaScreen technology-based assay was performed according to the manufacturer’s instructions with a minor revision. Briefly, the experiment was conducted with compounds at the indicated concentrations, 100 nmol/L 6*His-hFXRα-LBD and 100 nmol/L biotinylated co-factor peptide in the buffer containing 50 mmol/L MOPS, 50 μmol/L CHAPS, 50 mmol/L NaF, and 0.1 mg/mL BSA, pH 7.4. The mixture was incubated with 50 μg/mL nickel acceptor beads and 50 μg/mL streptavidin donor beads in a 384-well plate under green light in the dark at room temperature, before conducting fluorescence measurement with excitation at 680 nm and emission at 550 nm on an Envision microplate analyzer (PE 2102-8340, PerkinElmer Life Sciences).

FXR-LBD = target: T2, FXR-LBD (Homo sapiens, UniProt Q96RI1); assay: Co-immunoprecipitation of BIOTIN-DC646 and purified FXR-LBD; type: binding; settings: BIOTIN-DC646 50 μmol/L with purified FXR-LBD
T2 construct: 50 μmol/L Biotin-DC646 were incubated with 50 μmol/L purified FXR-LBD
T2 sequence (Q96RI1 262-486 limits assumed): T1 sequence (Q96RI1 262-486 limits assumed)
Procedure: For the co-immunoprecipitation of Biotin-DC646 and FXR-LBD, 50 μmol/L Biotin-DC646 were incubated with 50 μmol/L purified FXR-LBD at room temperature for 2 h at indicated conditions. These mixtures were then immunoprecipitated with beads which had been incubated with anti-His antibody (12698S, Cell Signaling Technology) at room temperature for 1 h. Immunoblotting was performed using the anti-BIOTIN antibody (sc-101339, Santa Cruz Biotechnology).

[2] = system: Pxr, Vdr and Nr1i3 target gene expression in organoids; assay: PXR, VDR and CAR downstream gene expression in organoids; type: cell-based, mouse; settings: 24 h
Excerpt: Intestinal crypts were isolated from 6- to 8-week-old C57BL/6 mice and Fxr^△IE mice as previously described with minor revision. Briefly, the abdomen of the mouse was dissected, and the small intestine was isolated with fats removed. The isolated intestine was flushed with cold PBS to remove the luminal contents. Then, the intestine was opened longitudinally and washed three times with PBS gently. The tissue was cut into small fragments (2 mm^2) and further washed three times with cold PBS gently, followed by incubation with 5 mmol/L EDTA-PBS at 4°C. After 40 min, the fragments were vortexed vigorously, and then the suspension was filtered through a […] and centrifuged at 50 g for 10 min. The crypts were counted and plated with Matrigel (1:1, 25 μL) and 500 μL IntestiCult Organoid Growth Medium with Supplements 1 and 2. The isolated crypts were cultured for 3–5 days and treated with indicated chemicals as described.
The intestine and liver were frozen in liquid nitrogen and stored at −80°C. RNA was extracted, and complementary DNA was synthesized from 1 μg total RNA. RT-qPCR was performed on a Bio-Rad CFX384 Touch detection system (Bio-Rad). […] RNA levels were analyzed by 2-^ΔΔCt, normalized to 18S ribosomal RNA and expressed as fold change relative to the control group.
Supplementary Figure S7 Selectivity of DC646. […] Data are presented as the mean ± SEM and analyzed by unpaired t-test.

[3] = system: intestinal and hepatic FXR signaling; assay: In vivo intestinal FXR antagonism experiment (TCA-induced); parameters: species or system mouse; settings: mice, oral 20 mg/kg with TCA 400 mg/kg/day, 3 doses
Procedure: For the in vivo intestinal FXR antagonism experiment, after a 3-day treatment with an antibiotic cocktail (1 mg/mL neomycin, 1 mg/mL streptomycin, and 1 mg/mL bacitracin) in drinking water, 8- to 10-week-old male C57BL/6 J mice were orally administered with vehicle or TCA (400 mg/kg/day), TCA combined with GUDCA (50 mg/kg), or TCA combined with DC646 (20 mg/kg) once a day. The serum, liver, and intestine were collected 2 h after the third dosing.
The intestine and liver were frozen in liquid nitrogen and stored at −80°C. RNA was extracted, and complementary DNA was synthesized from 1 μg total RNA. RT-qPCR was performed on a Bio-Rad CFX384 Touch detection system (Bio-Rad). The primer sequences for RT-qPCR are shown in Supplementary Table S5. RNA levels were analyzed by 2-^ΔΔCt, normalized to 18S ribosomal RNA and expressed as fold change relative to the control group.

PPARγ = target: T3, PPARγ (Homo sapiens, UniProt P37231); assay: PPARγ cell-based reporter assay; settings: 10 μmol/L; inhibition of agonist-induced receptor activation
T3 sequence (P37231 1-505): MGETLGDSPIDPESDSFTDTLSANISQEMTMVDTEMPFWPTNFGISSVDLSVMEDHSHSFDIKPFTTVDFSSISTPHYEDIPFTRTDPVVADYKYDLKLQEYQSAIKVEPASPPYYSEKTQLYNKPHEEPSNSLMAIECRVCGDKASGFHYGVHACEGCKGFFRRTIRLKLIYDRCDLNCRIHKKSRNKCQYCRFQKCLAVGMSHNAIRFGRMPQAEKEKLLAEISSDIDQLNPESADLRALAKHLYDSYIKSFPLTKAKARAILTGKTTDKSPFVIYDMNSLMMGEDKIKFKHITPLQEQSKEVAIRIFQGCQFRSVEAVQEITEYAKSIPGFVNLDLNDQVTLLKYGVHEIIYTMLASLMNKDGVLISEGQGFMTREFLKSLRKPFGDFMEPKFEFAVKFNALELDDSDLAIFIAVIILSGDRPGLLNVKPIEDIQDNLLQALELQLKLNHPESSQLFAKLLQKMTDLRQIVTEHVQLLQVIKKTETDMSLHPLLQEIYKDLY
Excerpt: Inhibition% means inhibition percentage of agonist-induced receptor activation.

[4] = Water solubility (co-crystallisation attempts); type: physicochemical
Procedure: To explore the molecular mechanism underlying DC646-mediated FXR antagonism, we determined the structure of the DC646 by X-ray crystal analysis (Supplementary Fig. S5). We also made efforts to co-crystalize DC646 with hFXRα-LBD. […] As an alternative, the AlphaScreen assay was conducted to investigate the mechanism (Fig. 3a).

CC(C)C[C@@H]1NC(=O)[C@@H]2CN(CCO2)c2cccc3c2c(cn3[Si](C(C)C)(C(C)C)C(C)C)C[C@H](NS(=O)(=O)C(F)(F)F)C(=O)OCCCCNC(=O)[C@H](CC(C)C)NC(=O)[C@@H]2CN(CCO2)c2cccc3c2c(cn3[Si](C(C)C)(C(C)C)C(C)C)C[C@H](NS(=O)(=O)C(F)(F)F)C(=O)OCCCCNC1=O [DC646, N,N'-((1^2R,1^4S,16^2R,16^4S,4R,13R,19R,28R)-13,28-diisobutyl-5,12,15,20,27,30-hexaoxo-2^1,17^1-bis(triisopropylsilyl)-2^1H,17^1H-6,21-dioxa-11,14,26,29-tetraaza-1(4,2),16(2,4)-dimorpholina-2,17(4,3)-diindolacyclotriacontaphane-4,19-diyl)bis(1,1,1-trifluoromethanesulfonamide)]
Disruption of hFXRα-LBD-NcoR2 interaction induced by Ivermectin [1]: competitively disrupted | Binding with FXR-LBD (co-immunoprecipitation) (FXR-LBD): directly bind | Pxr, Vdr and Nr1i3 target gene expression [2]: no significant impact | Hepatic FXR signaling [3]: not hepatic FXR signaling | mRNA expression levels of TCA-induced FXR target genes Shp and Fgf15 (intestine) [3]: decreased | inhibition at 10 µM (PPARγ): 14% | Water solubility [4]: poor water solubility
